The values that follow come from patent US10865201B2, “Bicyclic compounds useful as GPR120 modulators” (Valo Health, Inc., priority 2016, dated 2020).

Bounds are passed on as bounds.

The target of assay [1] is T1, human GPR120 (Homo sapiens, UniProt Q5NUL3).
T1 construct: expressed in transfected cells; host or cells: CHO-K1 coexpressing Gα16 and mitochondrial apoaequorin
T1 sequence (Q5NUL3 1-361): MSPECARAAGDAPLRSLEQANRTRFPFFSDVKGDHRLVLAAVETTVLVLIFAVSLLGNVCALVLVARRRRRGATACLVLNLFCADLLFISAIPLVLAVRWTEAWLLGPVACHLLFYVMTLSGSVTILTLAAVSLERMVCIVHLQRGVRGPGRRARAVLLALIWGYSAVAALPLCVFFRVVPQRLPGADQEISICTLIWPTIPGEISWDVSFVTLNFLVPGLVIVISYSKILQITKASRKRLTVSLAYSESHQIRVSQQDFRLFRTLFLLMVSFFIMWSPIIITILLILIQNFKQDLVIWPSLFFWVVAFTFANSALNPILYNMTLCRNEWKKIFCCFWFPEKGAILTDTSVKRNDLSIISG
The assay is described as follows: Human GPR120 Calcium-Release Assay. It counts as cell-based. As to conditions: short variant of human GPR120 in CHO-K1 cells coexpressing Gα16 and mitochondrial apoaequorin; luminescence; read-out: Ca2+ pEC50 (converted). The text has this:
This in vitro assay tests compounds' ability to activate heterologously expressed human GPR120 via G-protein coupling leading to generation of inositol 1,4,5-triphosphate and mobilization of intracellular calcium. This functional cellular assay is based on the luminescence of mitochondrial aequorin following intracellular Ca^2+ release. Aequorin is a photoprotein isolated from the jellyfish Aequorea victoria. The active protein is formed in the presence of molecular oxygen from apoaequorin and its cofactor coelenterazine. Binding of Ca^2+ to the active protein induces a conformational change, resulting in oxidation of coelenterazine and subsequent blue luminescence.
The short variant of the human GPR120 receptor (GenBank accession Number AAI01176) was stably expressed in a CHO-K1 cell line coexpressing Gα16 and mitochondrial apoaequorin.
Cells were grown to mid-log phase in culture media without antibiotics, were detached with PBS/EDTA, centrifuged and resuspended in assay buffer (DMEM-F12 medium with 15 mM HEPES pH 7.0 and 0.1% protease free BSA) at a concentration of 10^6 cells/mL. Cells were incubated at room temperature for at least 4 hours with 5 μM coelenterazine h.
Test compounds were dissolved in 100% DMSO to a concentration of 20 mM to provide stock solutions. Serial dilutions were performed from stock solutions in 100% DMSO to obtain intermediate concentrations 200-fold higher than the concentrations to be tested. Each sample was diluted 100-fold into assay buffer. 50 μl of these compound solutions were dispensed into each well of 96-well assay plates. The final concentration of compounds tested in the assay ranged from 5 nM to 100 μM. α-Linolenic acid was used as a reference compound. Each test was performed in duplicate.
To start the assay, 50 μl of cell suspension were added to each well of the assay plate. The resulting luminescence was recorded using a Hamamatsu Functional Drug Screening System 6000 (FDSS 6000), and raw data were expressed as relative light units (RLU).
(§1) To determine agonist potencies (EC50 values), non-linear least-squares curve fits of the raw data (RLU) were performed in the GraphPad Prism software package, using the 4-parameter model with variable Hill Slope:
Reported below in Table 1 are pEC50 values (pEC50=−log(EC50) from curve fit) for representative compounds of Formula I in this assay, Ca2+pEC50.

Assay [2] has as its target T2, human GPR120 (Homo sapiens, UniProt Q5NUL3).
T2 construct: host or cells: CHO-K1
In words: Human GPR120 β-Arrestin Recruitment Assay. Format: cell-based. As to conditions: CHO-K1 cells co-expressing ProLink-tagged human GPR120 and β-Arrestin 2/β-gal fusion; PathHunter; 90 minutes at 37° C.; read-out: β-Arr pEC50 (converted).
Source text: This in vitro assay tests compounds' ability to activate intracellular signaling via β-Arrestin recruitment to heterologously expressed human GPR120. This functional cellular assay utilizes enzyme fragment complementation with β-galactosidase (β-gal) as a functional reporter (DiscoveRx PathHunter® β-Arrestin assay platform). The human GPR120 receptor (GenBank accession Number NM_181745) was fused in frame with the small enzyme fragment ProLink™ and co-expressed in CHO-K1 cells with a fusion protein of β-Arrestin 2 and the larger, N-terminal deletion mutant of β-gal. Activation by a GPR120 agonist stimulates binding of β-arrestin to the ProLink-tagged GPCR and forces complementation of the two enzyme fragments, resulting in the formation of an active β-gal enzyme. This interaction leads to an increase in enzyme activity that can be measured using chemiluminescent PathHunter® Detection Reagents.
One day prior to the assay, cells were seeded in a total volume of 20 μl of growth medium into white walled 384-well microplates and incubated at 37° C./5% CO2 overnight. On the day of the assay, growth medium was removed and 20 μl assay buffer (HBSS+10 mM HEPES+0.1% heat-inactivated BSA) were added to each well.
Test compounds were dissolved in 100% DMSO to a concentration of 10 mM to provide stock solutions. Serial dilutions were performed from stock solutions into assay buffer to obtain intermediate concentrations of 5-fold higher than the concentrations to be tested. 5 μl of the 5x compound solutions were added to the cells and the assay plates were incubated alt 37° C. for 90 minutes, The final concentration of compounds tested in the assay ranged from 1.5 nM to 100 μM. Following incubation, 12.5 μl of PathHunter® detection reagent were added to each well, and plates were incubated at room temperature for 60 minutes. Chemiluminescence was read using an EnVision plate reader (PerkinElmer), raw data were expressed as relative light units (RLU).
as §1
T2 sequence (Q5NUL3 1-377 isoform Q5NUL3-1): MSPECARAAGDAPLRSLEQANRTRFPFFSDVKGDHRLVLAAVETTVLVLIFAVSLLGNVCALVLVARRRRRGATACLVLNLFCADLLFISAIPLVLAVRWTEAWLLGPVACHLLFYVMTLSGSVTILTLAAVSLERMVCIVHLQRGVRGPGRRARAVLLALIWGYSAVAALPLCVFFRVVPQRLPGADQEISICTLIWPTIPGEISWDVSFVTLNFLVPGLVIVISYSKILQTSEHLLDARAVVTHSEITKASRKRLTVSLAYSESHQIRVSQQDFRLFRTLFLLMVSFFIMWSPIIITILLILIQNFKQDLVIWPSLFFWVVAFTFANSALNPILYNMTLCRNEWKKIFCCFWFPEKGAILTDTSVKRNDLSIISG
T2 sequence (P32121 whole entry partner): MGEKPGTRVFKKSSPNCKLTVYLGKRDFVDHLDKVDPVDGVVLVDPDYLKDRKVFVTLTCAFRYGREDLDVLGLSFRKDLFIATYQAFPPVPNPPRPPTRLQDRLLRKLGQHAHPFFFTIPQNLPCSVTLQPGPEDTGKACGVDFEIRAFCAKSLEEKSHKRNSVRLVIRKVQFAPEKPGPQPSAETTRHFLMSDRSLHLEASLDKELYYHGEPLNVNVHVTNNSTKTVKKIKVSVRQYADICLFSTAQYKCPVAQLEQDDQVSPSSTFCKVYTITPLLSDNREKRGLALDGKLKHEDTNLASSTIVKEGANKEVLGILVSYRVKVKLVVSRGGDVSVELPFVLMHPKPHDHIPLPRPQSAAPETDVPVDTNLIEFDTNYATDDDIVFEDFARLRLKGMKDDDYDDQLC
Reported below in Table 1 are pEC50 values (pEC50=−log(EC50) from curve fit) for compounds of Formula I in this assay, β-Arr pEC50.

Turning to `O=S1(=O)c2ccc(Oc3ccccc3)cc2CN1Cc1ccccc1` [Compound 2], the values for the EC50 on human GPR120 [1] and on human GPR120 [2] were 1 µM and 0.501 µM, respectively. As to `O=S1(=O)c2ccc(Oc3cccc(Cl)c3)cc2CN1Cc1ccccc1` [Compound 3], the EC50 is 3.98 µM at human GPR120 [1] and 0.158 µM on human GPR120 [2]. In the same order, the values of `O=S1(=O)c2ccc(Oc3ccc(Cl)cc3)cc2CN1Cc1ccccc1` [Compound 4] are 7.94 µM and 0.251 µM. Regarding `O=S1(=O)c2ccc(Oc3ccc(Cl)c(Cl)c3)cc2CN1Cc1ccccc1` [Compound 5], the EC50 on human GPR120 [2] is 1.58 µM.

As for `O=S1(=O)c2ccc(Oc3cccnc3)cc2CN1Cc1c(Cl)cccc1Cl` [Compound 6], the EC50 at human GPR120 [2] was more than 10 µM.

For `O=S1(=O)c2ccc(Oc3cccnc3)cc2CN1Cc1c(F)cccc1Cl` [Compound 7], the EC50 on human GPR120 [1] was 2 µM; at human GPR120 [2] it was 3.98 µM. Regarding `O=S1(=O)c2ccc(Oc3cccnc3)cc2CN1Cc1ccccc1Cl` [Compound 8], at human GPR120 [2], the EC50 is 6.31 µM. Take `O=S1(=O)c2ccc(Oc3cccnc3)cc2CN1Cc1cccc(Cl)c1` [Compound 9]: the EC50 was 1.58 µM on human GPR120 [1] and 1.26 µM at human GPR120 [2]. The corresponding values for `O=S1(=O)c2ccc(Oc3cccnc3)cc2CN1Cc1ccc(Cl)cc1` [Compound 10] are 2.51 µM and 3.16 µM. On to `O=S1(=O)c2ccc(Oc3cccnc3)cc2CN1Cc1ccc(Cl)cc1Cl` [Compound 11], for which the EC50 on human GPR120 [1] is 3.98 µM; at human GPR120 [2] it was 7.94 µM. Turning to `CN1Cc2cc(Oc3cccnc3)ccc2S1(=O)=O` [Compound 12], on human GPR120 [2], the EC50 was more than 31.6 µM. For the molecule `CC(c1ccccc1)N1Cc2cc(Oc3cccnc3)ccc2S1(=O)=O` (centres unmarked) [Compound 13], the EC50 on human GPR120 [2] was more than 10 µM. As to `O=S1(=O)c2ccc(OC3CC(F)(F)C3)cc2CN1Cc1ccccc1` [Compound 14], the results for the EC50 on human GPR120 [1] and at human GPR120 [2] were 20 µM and 12.6 µM, respectively. For the molecule `O=S1(=O)c2ccc(OC3CCC3)cc2CN1Cc1ccccc1` [Compound 15], the EC50 on human GPR120 [1] was 0.794 µM; on human GPR120 [2], 0.501 µM. Turning to `O=S1(=O)c2ccc(Oc3cccnc3)cc2CN1Cc1cc(OC(F)(F)F)ccc1Cl` [Compound 16], the EC50 on human GPR120 [2] is 3.16 µM. Still for that read-out and setting: under `O=S1(=O)c2ccc(Oc3cccnc3)cc2CN1CCc1ccccc1` [Compound 17] stands more than 10 µM. Regarding `O=S1(=O)c2ccc(Oc3cccnc3)cc2CN1Cc1cccnc1` [Compound 19], the EC50 was 15.8 µM at human GPR120 [1] and 7.94 µM on human GPR120 [2]. In the same order, the values of `O=S1(=O)c2ccc(Oc3cccnc3)cc2CN1Cc1ccncc1` [Compound 20] are 10 µM and 3.16 µM. On to `O=C(O)c1ccc(CN2Cc3cc(Oc4cccnc4)ccc3S2(=O)=O)cc1` [Compound 21], for which, on human GPR120 [2], the EC50 was more than 31.6 µM. In the case of `O=C(O)c1cccc(CN2Cc3cc(Oc4cccnc4)ccc3S2(=O)=O)c1` [Compound 22], the EC50 at human GPR120 [2] was more than 31.6 µM. `Cc1cc(Oc2cccnc2)cc2c1S(=O)(=O)N(Cc1ccccc1)C2` [Compound 23]: the EC50 on human GPR120 [2] was 2 µM. On to `O=S1(=O)c2ccc(Oc3cccnc3)cc2CN1c1ccccc1` [Compound 24], for which the EC50 at human GPR120 [1] is 2.51 µM; on human GPR120 [2], 7.94 µM. In the same order, the values of `O=S1(=O)c2ccc(Oc3ccccc3)cc2CN1c1ccccc1` [Compound 25] are 1.26 µM and 1 µM. Take `O=S1(=O)c2ccc(Oc3ccncc3)cc2CN1c1ccccc1` [Compound 26]: the EC50 on human GPR120 [2] is more than 31.6 µM. Turning to `O=S1(=O)c2ccc(Oc3ccccn3)cc2CN1c1ccccc1` [Compound 27], at human GPR120 [2], the EC50 was more than 31.6 µM. Consider `O=S1(=O)c2ccc(Oc3cccc(Cl)c3)cc2CN1c1ccccc1` [Compound 28], for which the EC50 on human GPR120 [1] is 39.8 µM; at human GPR120 [2] it was 0.794 µM.

In the case of `O=S1(=O)c2ccc(Oc3ccc(Cl)c(Cl)c3)cc2CN1c1ccccc1` [Compound 29], the EC50 is more than 100 µM on human GPR120 [1] and more than 31.6 µM on human GPR120 [2]. The corresponding values for `O=S1(=O)c2ccc(OC3CCC3)cc2CN1c1ccccc1` [Compound 30] are more than 100 µM and 2.51 µM. With `O=S1(=O)c2ccc(Oc3cccnc3)cc2CN1c1cccnc1` [Compound 31], at human GPR120 [2], the EC50 was more than 10 µM.

For `O=S1(=O)c2ccc(Oc3cccnc3)cc2CN1c1cccc(Cl)c1` [Compound 32], at human GPR120 [2], the EC50 was 1.58 µM. Still for that read-out and setting: then `O=S1(=O)c2ccc(Oc3cccnc3)cc2CN1c1cccc(OC(F)(F)F)c1` [Compound 33], with 5.01 µM.

Turning to `O=S1(=O)c2ccc(Oc3cccnc3)cc2CN1c1ccccn1` [Compound 34], the EC50 at human GPR120 [1] was 10 µM; at human GPR120 [2], 15.8 µM. On to `O=S1(=O)c2ccc(Oc3cccnc3)cc2CN1c1ccncc1` [Compound 35], for which, at human GPR120 [2], the EC50 is 12.6 µM. For `O=C(O)c1cccc(N2Cc3cc(Oc4cccnc4)ccc3S2(=O)=O)c1` [Compound 36], the EC50 on human GPR120 [2] was more than 10 µM.

Turning to `O=S1(=O)c2ccc(Oc3ccc(Cl)cc3)cc2CN1c1ccccc1` [Compound 37], the EC50 on human GPR120 [2] is more than 10 µM. For the molecule `O=S1(=O)c2ccc(OCc3ccccc3)cc2CN1c1ccccc1` [Compound 38], the EC50 at human GPR120 [2] was 5.01 µM. For the molecule `O=S1(=O)c2ccc(OCc3cccnc3)cc2CN1c1ccccc1` [Compound 40], the EC50 at human GPR120 [2] was more than 31.6 µM. On the same count and under the same terms, then `O=S1(=O)c2ccc(Oc3cccnc3)cc2CN1c1cc(OC(F)(F)F)ccc1Cl` [Compound 41], with more than 31.6 µM; and `O=S1(=O)c2ccc(Oc3cccnc3)cc2CN1C1CCC1` [Compound 44], with 12.6 µM.

For the molecule `O=C1c2ccc(Oc3cccnc3)cc2CN1c1ccccc1` [Compound 45], the EC50 on human GPR120 [2] was more than 10 µM. Take `O=C1c2ccc(Oc3cccnc3)cc2CN1Cc1ccccc1` [Compound 46]: the EC50 on human GPR120 [1] was 10 µM; on human GPR120 [2], 6.31 µM.
